The results in this text go back to patent US20240208953A1, “"Cyclopenta[c]pyrrol Negative Allosteric Modulators of NR2B"” (Novartis AG, priority 2021, published 2024).

Bounds are passed on as bounds.

For this assay, the target named is NR2B (Rattus norvegicus (Rat), UniProt Q00960). The assay can be described thus: NR2B rat cortical neuron calcium influx assay. The assay is classed as cell-based. The conditions noted are these: rat cortical neurons, glutamate and glycine stimulated calcium influx. The text has this: Example 1: NR2B Rat Cortical Neuron Calcium Influx Assay Protocol
NR2B, sequence (Q00960 27-1482, other chains not shown): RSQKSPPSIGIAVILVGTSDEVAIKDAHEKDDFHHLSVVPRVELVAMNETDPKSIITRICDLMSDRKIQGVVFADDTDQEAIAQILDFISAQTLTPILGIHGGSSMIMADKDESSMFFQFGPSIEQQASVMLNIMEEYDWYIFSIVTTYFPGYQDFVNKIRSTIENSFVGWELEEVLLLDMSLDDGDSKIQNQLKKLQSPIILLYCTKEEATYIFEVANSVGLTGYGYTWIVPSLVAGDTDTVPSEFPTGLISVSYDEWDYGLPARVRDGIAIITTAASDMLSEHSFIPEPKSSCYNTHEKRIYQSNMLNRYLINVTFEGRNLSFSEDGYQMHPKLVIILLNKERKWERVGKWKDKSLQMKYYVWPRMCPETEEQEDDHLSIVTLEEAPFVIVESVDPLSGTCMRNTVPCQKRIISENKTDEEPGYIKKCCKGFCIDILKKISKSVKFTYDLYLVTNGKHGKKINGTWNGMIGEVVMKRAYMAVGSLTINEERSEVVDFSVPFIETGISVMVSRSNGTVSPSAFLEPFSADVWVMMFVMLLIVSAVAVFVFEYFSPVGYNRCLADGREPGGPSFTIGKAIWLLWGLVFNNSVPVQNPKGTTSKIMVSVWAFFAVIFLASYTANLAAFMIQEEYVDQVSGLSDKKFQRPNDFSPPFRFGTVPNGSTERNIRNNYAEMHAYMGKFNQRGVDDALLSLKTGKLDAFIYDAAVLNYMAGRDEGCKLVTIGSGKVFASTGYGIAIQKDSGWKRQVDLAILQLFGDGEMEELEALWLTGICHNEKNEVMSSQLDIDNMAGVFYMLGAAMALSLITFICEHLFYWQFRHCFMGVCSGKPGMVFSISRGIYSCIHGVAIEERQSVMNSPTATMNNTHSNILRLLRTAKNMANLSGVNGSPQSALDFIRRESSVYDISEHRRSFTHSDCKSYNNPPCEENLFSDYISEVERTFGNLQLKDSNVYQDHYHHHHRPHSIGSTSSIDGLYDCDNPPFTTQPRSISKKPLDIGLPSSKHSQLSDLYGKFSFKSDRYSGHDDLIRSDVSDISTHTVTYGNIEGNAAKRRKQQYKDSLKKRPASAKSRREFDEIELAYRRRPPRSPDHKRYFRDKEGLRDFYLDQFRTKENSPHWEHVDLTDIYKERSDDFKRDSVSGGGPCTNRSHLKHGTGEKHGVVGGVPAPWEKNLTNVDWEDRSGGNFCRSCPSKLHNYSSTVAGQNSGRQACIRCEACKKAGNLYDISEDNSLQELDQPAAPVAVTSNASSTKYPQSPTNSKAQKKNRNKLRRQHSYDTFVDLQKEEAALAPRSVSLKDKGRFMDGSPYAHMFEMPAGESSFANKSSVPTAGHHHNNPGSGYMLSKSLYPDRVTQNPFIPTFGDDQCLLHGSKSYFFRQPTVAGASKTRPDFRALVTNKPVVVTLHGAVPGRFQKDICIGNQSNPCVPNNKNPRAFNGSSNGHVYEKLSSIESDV
Embryonic day 18 timed pregnant Sprague Dawley rats were euthanized according to Institutional Animal Care and Use Committee (IACUC) protocol. After cutting medially through the skin and exposing the uterus and embryos, fetuses were removed and placed in cold Hibernate medium. Each embryo's brain was extracted and cerebral cortices were isolated by removing the midbrain and meninges. The dissected cortices were then dissociated into the neurons using papain dissociation system (Worthington Biochemical Corporation) according the manufacturer's protocol.
Dissociated neurons were counted and plated into 384-well poly-D-lysine coated plates (Corning® BioCoat™) at a density of 20,000 cells/well in 30 μL of Neurobasal/B27 complete medium. Neurons were cultured at 37° C. for 2 days. On the assay day, medium was removed and cells were incubated with 20 μL/well of calcium dye (Calcium 6 Assay Kit, Molecular Devices) suspended in HBSS with 1.8 mM Ca^2+ (Ca-HBSS) according to the manufacturer's instruction.
Compounds of interest from 10 mM stock were serially diluted into 3× of desired concentrations in 1.8 mM Ca-HBSS, and 10 μL were added to the wells. Compound and the neurons were incubated at 37° C. for 2 hours in the dark.
On FDSS7000EX (Hamamatsu Photonics), a fluorescence measuring instrument, 10 μL of 4× ligand solution containing glutamate and glycine made in 1.8 mM Ca^2+-HBSS were added to each well. The fluorescent signals were collected before and after the addition of ligands for a total of 2 minutes. The data were converted to a ratio of the peak fluorescence to the fluorescence at the beginning of the measurement.
Each data point was measured in duplicates. Dose response curves were used to identify IC50 and maximal inhibition values. IC50 represents the concentration in μM of compound at which there is a half-maximal compound effect. Maximal inhibition of a compound is expressed as a percent of the highest inhibition of activity over a no compound control.
Take `O=C1CCc2cc([C@H](O)CN3C[C@H]4C[C@H](Oc5ccccc5F)C[C@@]4(O)C3)cc(F)c2N1` (single isomer, unassigned) [Example 6B]: the IC50 (commonly the midpoint of a concentration-inhibition curve) came out at 1060 nM.

On to `CC1(C)Cc2cc([C@H](O)CN3C[C@H]4C[C@H](Oc5ccccc5)C[C@@]4(O)C3)ccc2NC1=O` (single isomer, unassigned) [Example 11B], for which the IC50 stood at 2.6 nM.

Take `O=C1Nc2ccc([C@H](O)CN3C[C@H]4C[C@H](Oc5ccccc5F)C[C@@]4(O)C3)cc2CCO1` (single isomer, unassigned) [Example 12B]: the IC50 is 0.25 nM.

`O=c1[nH]c2c(F)cc([C@@H](O)CN3C[C@H]4C[C@H](Oc5ccccc5)C[C@@]4(O)C3)cc2cc1F` (single isomer, unassigned) [Example 20A]: the IC50 was determined as 2 nM.

For `O=C1CCc2cc([C@@H](O)CN3C[C@H]4C[C@H](Oc5ccc(F)cc5)C[C@@]4(O)C3)ccc2N1` (single isomer, unassigned) [Example 22A], the IC50 is 23 nM.

`O=C1CCc2cc([C@H](O)CN3C[C@H]4C[C@H](Oc5ccc(F)cc5)C[C@@]4(O)C3)ccc2N1` (single isomer, unassigned) [Example 22B]: the 50% inhibitory concentration (IC50) was determined as 420 nM.

Turning to `O=C1CCc2cc([C@H](O)CN3C[C@@H]4C[C@@H](Oc5ccc(F)cc5)C[C@]4(O)C3)ccc2N1` (single isomer, unassigned) [Example 22D], the IC50 was 1.6 nM.

For `O=C1CCc2cc([C@@H](O)CN3C[C@H]4C[C@H](Oc5cccc(F)c5)C[C@@]4(O)C3)ccc2N1` (single isomer, unassigned) [Example 23A], the IC50 stood at 33 nM.

`O=C1CCc2cc([C@H](O)CN3C[C@H]4C[C@H](Oc5cccc(F)c5)C[C@@]4(O)C3)ccc2N1` (single isomer, unassigned) [Example 23B]: the IC50 worked out at 280 nM.

Turning to `O=C1CCc2cc([C@@H](O)CN3C[C@H]4C[C@H](Oc5cccc(F)c5F)C[C@@]4(O)C3)ccc2N1` (single isomer, unassigned) [Example 24A], the IC50 turned out to be 16 nM.

For `O=C1CCc2cc([C@H](O)CN3C[C@H]4C[C@H](Oc5cccc(F)c5F)C[C@@]4(O)C3)ccc2N1` (single isomer, unassigned) [Example 24B], the IC50 turned out to be 57 nM.

Turning to `O=C1CCc2cc([C@@H](O)CN3C[C@H]4C[C@H](Oc5ccc(F)cc5F)C[C@@]4(O)C3)ccc2N1` (single isomer, unassigned) [Example 25A], the IC50 is > 1100 nM.

With `O=C1CCc2cc([C@H](O)CN3C[C@H]4C[C@H](Oc5ccc(F)cc5F)C[C@@]4(O)C3)ccc2N1` (single isomer, unassigned) [Example 25B], the IC50 is 14 nM.

For the molecule `O=C1CCc2cc([C@H](O)CN3C[C@@H]4C[C@@H](Oc5ccc(F)cc5F)C[C@]4(O)C3)ccc2N1` (single isomer, unassigned) [Example 25D], the IC50 turned out to be 0.22 nM.

With `O=C1CCc2cc([C@@H](O)CN3C[C@H]4C[C@H](Oc5cc(F)ccc5F)C[C@@]4(O)C3)ccc2N1` (single isomer, unassigned) [Example 26A], the IC50 stood at 250 nM.

For `O=C1CCc2cc([C@H](O)CN3C[C@H]4C[C@H](Oc5cc(F)ccc5F)C[C@@]4(O)C3)ccc2N1` (single isomer, unassigned) [Example 26B], the IC50 is 470 nM.

Turning to `O=C1CCc2cc([C@@H](O)CN3C[C@H]4C[C@H](Oc5c(F)cccc5F)C[C@@]4(O)C3)ccc2N1` (single isomer, unassigned) [Example 27A], the IC50 is > 1100 nM.

For `O=C1CCc2cc([C@H](O)CN3C[C@H]4C[C@H](Oc5c(F)cccc5F)C[C@@]4(O)C3)ccc2N1` (single isomer, unassigned) [Example 27B], the IC50 turned out to be 290 nM.

Take `O=C1CCCc2cc([C@H](O)CN3C[C@H]4C[C@H](Oc5ccccc5)C[C@@]4(O)C3)cc(F)c2N1` (single isomer, unassigned) [Example 30B]: the IC50 is 17 nM.

Consider `O=C1COCc2cc([C@H](O)CN3C[C@H]4C[C@H](Oc5ccccc5)C[C@@]4(O)C3)cc(F)c2N1` (single isomer, unassigned) [Example 32B], for which the IC50 amounted to 600 nM.

In the case of `O=C1Nc2c(F)cc([C@H](O)CN3C[C@H]4C[C@H](Oc5ccccc5)C[C@@]4(O)C3)c(F)c2CO1` (single isomer, unassigned) [Example 37B], the IC50 amounted to 6.5 nM.

As to `O=C1Nc2c(cc([C@H](O)CN3C[C@H]4C[C@H](Oc5ccccc5)C[C@@]4(O)C3)c(F)c2F)CO1` (single isomer, unassigned) [Example 38B], the concentration for half-maximal inhibition (IC50) was 7.8 nM.

Consider `O=c1[nH]c2ccc([C@@H](O)CN3C[C@H]4C[C@H](Oc5ccccc5)C[C@@]4(O)C3)cc2o1` (single isomer, unassigned) [Example 39A], for which the IC50 came to 26 nM.

Consider `O=c1[nH]c2ccc([C@H](O)CN3C[C@H]4C[C@H](Oc5ccccc5)C[C@@]4(O)C3)cc2o1` (single isomer, unassigned) [Example 39B], for which the IC50 worked out at 86 nM.

Regarding `O=c1[nH]c2ccc([C@@H](O)CN3C[C@H]4C[C@H](Oc5ccccc5F)C[C@@]4(O)C3)cc2o1` (single isomer, unassigned) [Example 40A], the IC50 came to 6.9 nM.

For `O=c1[nH]c2ccc([C@H](O)CN3C[C@H]4C[C@H](Oc5ccccc5F)C[C@@]4(O)C3)cc2o1` (single isomer, unassigned) [Example 40B], the IC50 came to 28 nM.

Consider `O=C1CCCc2cc([C@H](O)CN3C[C@H]4C[C@H](Oc5ccccc5F)C[C@@]4(O)C3)ccc2N1` (single isomer, unassigned) [Example 43B], for which the IC50 is 1.2 nM.

As to `O=C1Cc2cc([C@@H](O)CN3C[C@H]4C[C@H](Oc5ccccc5)[C@H](O)[C@@]4(O)C3)ccc2N1` [Example 3C, 5-((R)-2-((3aS,4S,5S,6aR)-3a,4-dihydroxy-5-phenoxyhexahydrocyclopenta[c]pyrrol-2(1H)-yl)-1-hydroxyethyl)indolin-2-one], the IC50 came to 400 nM.

For `O=C1Cc2cc([C@H](O)CN3C[C@H]4C[C@H](Oc5ccccc5)[C@H](O)[C@@]4(O)C3)ccc2N1` [Example 3D, 5-((S)-2-((3aS,4S,5S,6aR)-3a,4-dihydroxy-5-phenoxyhexahydrocyclopenta[c]pyrrol-2(1H)-yl)-1-hydroxyethyl)indolin-2-one], the half-maximal inhibitory concentration (IC50) was 75 nM.

Regarding `O=C1CCc2cc([C@H](O)CN3C[C@H]4C[C@H](Oc5ccccc5F)C[C@@]4(O)C3)ccc2N1` [Example 5B, 6-((S)-2-((3aS,5S,6aR)-5-(2-fluorophenoxy)-3a-hydroxyhexahydrocyclopenta[c]pyrrol-2(1H)-yl)-1-hydroxyethyl)-3,4-dihydroquinolin-2(1H)-one], the IC50 was found to be 130 nM.

On to `O=C1Nc2c(F)cc([C@@H](O)CN3C[C@H]4C[C@H](Oc5ccccc5)C[C@@]4(O)C3)cc2C[C@@H]1F` [Example 19], for which the IC50 came to 8.7 nM.
